How the values were obtained:
Type in all cases: physicochemical
[1] = Relative permittivity of solvent (impedance meter method); settings: 1 kHz, 22° C.
Source text: Precision LCR Meter 4284A, manufactured by Agilent Technologies, Inc., was used to make a measurement by the impedance meter method. […] Relative permittivity=(equivalent parallel capacitance)×(electrode spacing)/(electrode area)/(permittivity of vacuum (ε0))

[2] = Solubility of solvent in water (gas chromatography); settings: pure water, 25° C.
Procedure: Into a 110-mL vial were introduced 30 g of pure water and 8 g of the solvent. This vial was shaken for 4 hours at a frequency of 200 times per minute in a 25° C. thermostatic chamber. The liquid which had undergone the shaking was centrifuged (6,000×g; for 5 minutes), and the aqueous layer was sampled. The concentration of the solvent dissolved therein was determined by gas chromatography.

[3] = Absorption spectrum of n-decane solution: solution color, absorption maximum wavelength λmax, molar extinction coefficient ε; settings: for Absorption maximum wavelength λmax: 10 mm quartz cell; for ε (molar extinction coefficient): at λmax
Procedure: The solution color, absorption maximum wavelength (λmax), solubility C in 5° C. n-decane, molar extinction coefficient ε, and εC of each ink are summarized in Table 4.
One milligram of each of compound 1 and comparative compounds 1 and 2 was dissolved in 100 mL of the solvent, and the solution was examined for absorption spectrum with Hitachi Spectrophotometer U-4100 using a quartz cell having a measuring optical-path length of 10 mm. From the spectrum obtained, the absorption maximum wavelength λmax (nm) and the molar extinction coefficient E (L·mol^−1·cm^−1) were determined.

[4] = Solubility C of the compound in n-decane at 5° C. (saturated solution, absorbance) and product εC; settings: for Solubility C: in n-decane at 5° C., 24 hours, 0.1-μm filter; for εC: product of ε and saturation concentration C in n-decane at 5° C.
Procedure: The solubility C of each compound in n-decane was determined in the following manner. Each of compounds 1 to 11 and comparative compound 1 was added to n-decane until some of the compound came to remain undissolved, and the mixture was subjected to an ultrasonic treatment at 30° C. for 30 minutes.
After the addition, each mixture was subjected to a 30-minute ultrasonic treatment at 30° C. This mixture was allowed to stand at 5° C. for 24 hours and then subjected to centrifugal filtration with a 0.1-μm filter using a miniature centrifugal machine (centrifugal force, 5,200×g). The saturated solution obtained was diluted to an adequate concentration and examined for absorption spectrum with Hitachi Spectrophotometer U-4100 using a quartz cell having a measuring optical-path length of 10 mm. The concentration of each compound was determined from a relationship between the absorbance at the absorption maximum wavelength λmax (nm) and the molar extinction coefficient ε (L·mol^−1·cm^−1) determined beforehand, and the solubility C (mol·L^−1) thereof was calculated. Furthermore, the product εC of the molar extinction coefficient ε (L·mol^−1·cm^−1) and the solubility C (mol·L^−1) was determined.

[5] = Light fastness test (xenon light weatherometer, retention of absorbance); settings: retention of absorbance at λmax; n-decane solution, xenon light 340 nm, 0.55 W/m^2, 40 hours, 33° C.
Procedure: The light fastness of compounds 1 to 3, 5, and 7 to 11 and comparative compound 1 was determined in the following manner. In 0.99 g of n-decane was dissolved 0.01 of each compound. This solution was introduced into a cell having an optical-path length of 0.004 mm, and this cell was sealed with an epoxy resin. Using a weatherometer (Atlas Ci4000), the cell was irradiated with xenon light (340 nm; irradiance, 0.55 W/m^2) for 40 hours. During the irradiation, the internal temperature of the test chamber was kept at 33° C.
The retention of each compound was calculated using the following equation.

Row | relative permittivity [1] | solubility at 4 h [2] | Absorption maximum wavelength λmax [3] | ε (molar extinction coefficient) [3] | Solubility C [4] | εC [4] | Light fastness [5] | SMILES
1 | 2.0 | ≤ 1 µg/mL | – | – | – | – | – | CCCCCCCCCC [n-decane]
2 | – | – | 526 nm | 50000 L/mol/cm | 9.1 mass % | 4700 cm⁻¹ | D (retention of 49% or less) | CCCCCCSc1nnc(N=Nc2cc(OC)c(N(Cc3ccc(C(C)(C)C)cc3)Cc3ccc(C(C)(C)C)cc3)cc2NC(C)=O)s1 [compound 1, reference compound]
3 | – | – | 590 nm | 51000 L/mol/cm | 17.4 mass % | 9500 cm⁻¹ | A (retention of 100-90%) | CCCCc1ccc(N=Nc2cc(C(=O)OCCC)c(N=Nc3ccc(N(CC(CC)CCCC)CC(CC)CCCC)cc3C)s2)cc1 (stereo not drawn) [Compound 7]
4 | – | – | 591 nm | 50000 L/mol/cm | ≧20.1 mass % | ≧10000 cm^−1 | A (retention of 100-90%) | CCCCCc1ccc(N=Nc2cc(C(=O)OCCC)c(N=Nc3ccc(N(CC(CC)CCCC)CC(CC)CCCC)cc3CC)s2)cc1 (stereo not drawn) [Compound 5]
5 | – | – | 595 nm | 59000 L/mol/cm | ≧19.7 mass % | ≧12000 cm^−1 | A (retention of 100-90%) | CCCCc1ccc(N=Nc2cc(C#N)c(N=Nc3sc(N(CC(CC)CCCC)CC(CC)CCCC)nc3C(C)(C)C)s2)c(C)c1 (stereo not drawn) [Compound 11]
6 | – | – | 608 nm | 62000 L/mol/cm | 1.7 mass % | 1220 cm⁻¹ | A (retention of 100-90%) | CCCCc1ccc(N=Nc2sc(N=Nc3ccc(N(CC(CC)CCCC)CC(CC)CCCC)cc3C)c(C#N)c2C)cc1 (stereo not drawn) [Compound 2]
7 | – | – | 617 nm | 70000 L/mol/cm | ≧34.3 mass % | ≧20000 cm^−1 | A (retention of 100-90%) | CCCCC(CC)CN(CC(CC)CCCC)c1ccc(N=Nc2sc(N=Nc3ccc(CCC)cc3)c(C)c2C#N)c(NC(C)=O)c1 (stereo not drawn) [Compound 3]
8 | – | – | 638 nm | 54000 L/mol/cm | ≧10.5 mass % | ≧6000 cm^−1 | A (retention of 100-90%) | CCCCc1ccc(N=Nc2sc(N=Nc3cc(OCC)c(N(CC(CC)CCCC)CC(CC)CCCC)cc3OCC)c(C#N)c2C)cc1 (stereo not drawn) [Compound 4]
9 | – | – | 595 nm | 57000 L/mol/cm | ≧15 mass % | ≧9000 cm^−1 | A (retention of 100-90%) | CCCCc1ccc(N=Nc2cc(C#N)c(N=Nc3sc(N(CC(CC)CCCC)CC(CC)CCCC)nc3C(C)(C)C)s2)cc1 (stereo not drawn) [Compound 10]
